The test system of one data set is human MAIT cells. Put plainly: In vitro PBMC stimulation assay (intracellular cytokine staining). Format: cell-based. The settings on record: human PBMCs alone or with THP-1 cells. As to the method: To assess the ability of 11 to activate MAIT cells, human PBMCs were cultured alone, or with THP-1 cells, in the presence of the compounds, and cytokine production assessed by intracellular cytokine staining.
Stimulation of PBMCs was performed essentially as previously described. Briefly, 5 × 10^5 PBMCs were cultured, alone or with 1 × 10^5 THP-1 cells, overnight with or without compounds 3c or 11 at a range of doses or with PMA and ionomycin (5 ng ml^−1 and 1 μg ml^−1 final concentrations, respectively) as a positive control. BD GolgiStop (1:1,000 dilution) was added after the first hour of stimulation. Cells were stained for surface markers using human MR1-5-OP-RU tetramer (PE, 1:300), and monoclonal antibodies to CD3 (PE-CF594, UCHT1, BD Horizon, 1:50), CD161 (PE-Cy7, HP-3G10, Biolegend, 1:50) for 30 min on ice and fixed in 1% paraformaldehyde before cytokine production by MAIT cells was detected by intracellular cytokine staining with monoclonal antibodies to TNF (APC, MAb11, eBioscience, 1:50) and IFNγ (AlexaFluor700, B27, BD 1:50) in the presence of 0.3% saponin. Data was acquired on a BD LSR-Fortessa and analysed using FlowJo software (Tree Star).

Data set [1] is described as follows: Stability in aqueous media (LCMS). The settings on record: for t1/2: C0 0.065 mM.
Description: (§2) Stock solutions of either crude (3a, 3b and 9) or purified compounds (3c, 10 and 11) in DMSO-d6, with a known concentration calibrated using the PULCON NMR technique[52], were dissolved in aqueous buffers, such as TBS buffer (10 mM Tris, 150 mM NaCl, pH 8.0), PBS (pH 7.4), MilliQ water (pH 6.8), or aqueous ammonium acetate buffer (20 mM, pH 5.4, 150 mM NaCl). Consumption of 3 was monitored by LCMS.
(§3) Stability in aqueous media. TBS buffer (10 mM Tris, 150 mM NaCl,
(§4) pH 8.0), PBS (pH 7.4), MilliQ water (pH 6.8), or ammonium acetate buffer (20 mM, 150 mM
(§5) The initial concentration was quantified by measuring the LCMS UV chromatogram
(§6) absorbance peak area at 365 nm. Data shown as % of initial concentration.
For the next data set, the system named is MR1 on C1R.MR1 cells. As to the kind of experiment: Upregulation of MR1 surface expression. Format: cell-based, human. The conditions noted are these: 24 h time course, mAb 26.5. How it is done: (§1) MAIT reporter cell activation assays and MR1 upregulation assays were performed by slight modifications to reported methods. Briefly, Jurkat cells transduced with genes encoding a MAIT TCR comprising the TRAV1-2-TRAJ33 invariant α chain, and a TRBV6-1 β chain, were tested for activation by co-incubation with compounds and C1R antigen-presenting cells expressing MR1 (CIR.MR1) for 16 h or over a time course as indicated. Cells were subsequently stained with PE-Cy7-conjugated anti-CD3 (UCHT1, eBioscience, 1:300), and APC-conjugated anti-CD69 (BD, 1:25) antibodies as well as biotinylated anti-MR1 mAb 26.5, a gift from Dr Ted Hansen, Washington University School of Medicine, St Louis, MO[53], followed by Streptavidin-PE (BD, 1:1,000), before analysis by on a FACS CantoII (BD) flow cytometer. Activation of Jurkat.MAIT was measured by an increase in surface CD69 expression. MR1 expression was detected on gated C1R.MR1 cells in the same assay.

For the next data set, the target named is T1, human MR1 (Homo sapiens, UniProt Q95460).
T1 construct: Genes encoding soluble human MR1 or human β2m were expressed; made in house
T1 sequence (P61769 21-119): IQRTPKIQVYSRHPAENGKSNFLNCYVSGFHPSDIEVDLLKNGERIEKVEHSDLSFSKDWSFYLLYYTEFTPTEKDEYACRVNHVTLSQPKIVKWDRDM
T1 sequence (Q95460 23-302): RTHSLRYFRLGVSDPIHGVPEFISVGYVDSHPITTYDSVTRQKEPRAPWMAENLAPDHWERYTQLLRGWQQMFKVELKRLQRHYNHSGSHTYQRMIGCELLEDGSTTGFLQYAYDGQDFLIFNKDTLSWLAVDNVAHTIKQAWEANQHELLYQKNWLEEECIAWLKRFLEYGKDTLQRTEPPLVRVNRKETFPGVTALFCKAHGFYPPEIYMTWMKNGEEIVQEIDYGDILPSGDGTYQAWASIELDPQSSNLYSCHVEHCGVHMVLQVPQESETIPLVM
As to the kind of experiment: MR1 refolding with ligand. The conditions noted are these: in the presence of the compound. Format: binding. As to the method: E. coli were pelleted and resuspended in a buffer containing 50 mM Tris, 25% (w/v) sucrose, 1 mM EDTA, 10 mM DTT pH 8.0.

The subject of data set [2] is human MAIT TCR-transduced Jurkat T cells and MR1-overexpressed C1R cells. As to the kind of experiment: MAIT reporter cell activation assay (surface CD69 on Jurkat.MAIT). Format: cell-based. The settings on record: Jurkat.MAIT + C1R.MR1, 16 h. As to the method: MAIT activation was evaluated using a well established reporter assay[17] by co-culturing two cell lines (human MAIT TCR-transduced Jurkat T cells and MR1-overexpressed C1R cells, Fig. 3g).
as §1, with “assay. […]” for “assay.”
MAIT reporter cell activation assay
Conducted as described previously16. Jurkat cells transduced with genes encoding a MAIT TCR comprising the TRAV1-2-TRAJ33 invariant α chain and a TRBV6-1 β chain were co-incubated with C1R antigen presenting cells expressing MR1 (CIR.MR1) in the presence of graded amounts of ligands for 16 h. Cells were subsequently stained with PE-Cy7-conjugated anti-CD3 (eBioscience), and APC-conjugated anti-CD69 (BD Biosciences) antibodies, followed by Streptavidin-PE (BD Biosciences), before analysis by flow cytometry. Activation of Jurkat.MAIT cells was measured by an increase in surface CD69 expression.

The next data set can be described thus: physchem. The settings on record: for half-life: PBS buffer.
A further data set is described as follows: Stability in DMSO (NMR). The settings on record: for days at room temperature. Format: physicochemical.
Where [3] appears, read: PBS pH 7.4, 37 °C, DMSO stock diluted into buffer.

As a reminder, the EC50 is the concentration giving half of the maximal effect. Broadly, the half-life is the time in which the quantity being followed falls by half.

Description for physchem: as §2, §3, §4, §5, §6

On to `CC(=O)/C=C/c1c(CC[C@H](O)[C@H](O)[C@H](O)CO)[nH]c(=O)[nH]c1=O` [compound 11], for which the “cytokine production by human MAIT cells” value with human MAIT cells was “stimulated the production of interferon-γ (IFNγ) and tumour necrosis factor (TNF)”. Besides, the aqueous stability result in data set [1] (PBS buffer pH 7.4, 37 °C, 5 days) is recorded as “no degradation observed over 5 days”. Also, in the data set on MR1 on C1R.MR1 cells, the MR1 surface expression entry is “continued to increase over 24 h”. In addition, the “refolding of human MR1” value on human MR1 is reported as “readily refolded”.
As to `Nc1c(NC[C@H](O)[C@H](O)[C@H](O)CO)[nH]c(=O)[nH]c1=O` [compound 1, 5-amino-6-D-ribitylaminouracil, reference compound], in data set [2], the EC50 amounted to 18 nM.
In the case of `O=CC=Nc1c(NCC(O)C(O)C(O)CO)[nH]c(=O)[nH]c1=O` [3b, 5-(2-oxoethylideneamino)-6-D-ribitylaminouracil], the 50% effective concentration (EC50) in data set [2] came out at 0.51 nM. This compound also yielded a half-life at 0.065 mM in the data set “physchem” (TBS buffer, pH 8) of 0.3 h.
Turning to `CC(=O)C(C)=Nc1c(NCC(O)C(O)C(O)CO)[nH]c(=O)[nH]c1=O` [3a, 5-(1-methyl-2-oxopropylideneamino)-6-D-ribitylaminouracil], the EC50 in data set [2] was 24 nM. In addition, the “time to complete degradation” value in data set [1] (pH 8.0, 15 °C) is recorded as under 5 min.
On to `CC(=O)C=Nc1c(NCC(O)C(O)C(O)CO)[nH]c(=O)[nH]c1=O` [3c, 5-(2-oxopropylideneamino)-6-D-ribitylaminouracil], for which the half-life at 1 mM in “physchem” (MilliQ water, pH 6.8) turned out to be 7.68 h. Also, the half-life in “physchem” (pH 7.4) was 0.2 h; in “physchem” (pH 8) it was 14 h; in data set [1] (pH 6.8 (MilliQ water), 15 °C, 0.065 mM) it was 12 h. Further, in the data set “physchem” (TBS buffer, pH 8), the half-life at 0.065 mM amounted to 14.4 h. The same compound came in with a half-life at 0.25 mM in “physchem” (TBS buffer, pH 8) of 14.9 h. This compound displayed a half-life at 10 mM in the data set “physchem” (TBS buffer, pH 8) of 8.63 h. The t1/2 in data set [1] (PBS pH 7.4, 15 °C) worked out at 5.7 h; in data set [1] (setting [3]) it was 1.47 h; in data set [1] (pH 5.4 ammonium acetate buffer, 15 °C) it was 0.733 h; in data set [1] (pH 5.4 ammonium acetate buffer, 37 °C), 0.217 h; in data set [1] (pH 6.8 MilliQ water, 15 °C), 12.3 h; in data set [1] (pH 6.8 MilliQ water, 37 °C) it was 2.18 h. Further, the “stable in DMSO solution” value in the data set “Stability in DMSO (NMR)” is reported as over 95%. In addition, the “time at which MR1 upregulation peaked” value with MR1 on C1R.MR1 cells is on record as 4 h.
For the compound `Cc1cnc2c(=O)[nH]c(=O)nc-2n1C[C@H](O)[C@H](O)[C@H](O)CO` [4c], the EC50 in data set [2] is over 100 nM.
On to `CC(=O)/C=C/c1c(N(C)C[C@H](O)[C@H](O)[C@H](O)CO)[nH]c(=O)[nH]c1=O` [compound 10], for which the EC50 in data set [2] was over 10000 nM. Also, the t1/2 in data set [1] (PBS pH 7.4, 15 °C) was determined as 10.2 h; in data set [1] (setting [3]) it was 2.25 h.
For `CC(=O)/C=N/c1c(N(C)C[C@H](O)[C@H](O)[C@H](O)CO)[nH]c(=O)[nH]c1=O` [compound 9], in data set [2], the EC50 was determined as 14 ± 14 nM. The t1/2 in data set [1] (PBS pH 7.4, 15 °C) came out at 1.92 h; in data set [1] (setting [3]), 0.65 h.

(Values after publication PMC5344979, “Stabilizing short-lived Schiff base derivatives of 5-aminouracils that activate mucosal-associated invariant T cells” (Nature Communications, 2017).)
